Values after ≈ are worked out from the molar mass of the structure shown.

In one data set the test system is human red blood cells. The data set is described as follows: Hemolytic assay. The data set is classed as cell-based. The settings on record: concentration at 10% hemolytic activity on human red blood cells; mean (n = 2). The protocol: Human whole blood was washed three times with 3 volumes of 0.9% NaCl and then resuspended in same to a concentration of 0.5 × 10^8 cells/mL, as determined by manual cell count in a Neubauer hemocytometer. The washed cells were then added to the 384-well compound-containing plates for a final volume of 50 μL. After a 10 min shake on a plate shaker the plates were then incubated for 1 h at 37 °C. After incubation, the plates were centrifuged at 1000 g for 10 min to pellet cells and debris, 25 μL of the supernatant was then transferred to a polystyrene 384-well assay plate. Hemolysis was determined by measuring the supernatant absorbance at […] (OD405). The absorbance was measured using a Tecan M1000 Pro monochromator plate reader. HC10 and HC50 (concentration at 10% and 50% hemolysis, respectively) were calculated by curve fitting the inhibition values vs. log(concentration) using a sigmoidal dose–response function with variable fitting values for top, bottom and slope.
With Melittin [reference compound], the “HC10” value came out at 2.7 µg/mL.

Tested on in another data set: not given
Test: not given
Conditions: not given
For orientation: melting point means the temperature, or range, at which the solid turns liquid. Take `COc1ccc(CCn2cncc2-c2c[nH]c3ccc(F)cc23)cc1` [Compound 24, 5-Fluoro-3-(1-(4-methoxyphenethyl)-1H-imidazol-5-yl)-1H-indole]: the melting point was in the range of 152 to 153 °C. On the same count and under the same terms, the value for `Brc1ccc2c(-c3cncn3Cc3ccc(I)cc3)c[nH]c2c1` [Compound 10, 6-Bromo-3-(1-(4-iodobenzyl)-1H-imidazol-5-yl)-1H-indole] was greater than 200 °C.

For the compound `Clc1ccc2[nH]cc(-c3cncn3Cc3ccc(I)cc3)c2c1` [Compound 7, 5-Chloro-3-(1-(4-iodobenzyl)-1H-imidazol-5-yl)-1H-indole], the melting point is greater than 200 °C. The compound `Clc1cccc2[nH]cc(-c3cncn3Cc3ccccc3)c12` [Compound 45, 3-(1-Benzyl-1H-imidazol-5-yl)-4-chloro-1H-indole] displayed a melting point of 198 to 199 °C. The same measure, in the same setting: for `COc1ccc(-c2cncn2Cc2ccccc2)cc1` [Compound 104, 1-Benzyl-5-(4-methoxyphenyl)-1H-imidazole] the value was 83 to 84 °C; for `COc1ccc2c(-c3cncn3Cc3c[nH]c4ccccc34)c[nH]c2c1` [Compound 80, 3-(1-((1H-Indol-3-yl)methyl)-1H-imidazol-5-yl)-6-methoxy-1H-indole], 95 to 96 °C. `Fc1cccc2c(-c3cncn3Cc3ccccc3)c[nH]c12` [Compound 44, 3-(1-Benzyl-1H-imidazol-5-yl)-7-fluoro-1H-indole] came in with a melting point of 179 to 180 °C. In the case of `Clc1ccc2c(-c3cncn3CCc3ccc4c(c3)OCO4)c[nH]c2c1` [Compound 40, 3-(1-(2-(Benzo[d][1,3]dioxol-5-yl)ethyl)-1H-imidazol-5-yl)-6-chloro-1H-indole], the melting point is 180 to 181 °C. The same measure, in the same setting: the value for `Ic1ccc(Cn2cncc2-c2c[nH]c3ccccc23)cc1` [Compound 4, 3-(1-(4-Iodobenzyl)-1H-imidazol-5-yl)-1H-indole] was greater than 200 °C; that for `COc1ccc(Cn2cncc2-c2c[nH]c3ccc(F)cc23)cc1` [Compound 12, 5-Fluoro-3-(1-(4-methoxybenzyl)-1H-imidazol-5-yl)-1H-indole] was 181 to 182 °C.

As to `c1ccc(Cn2cncc2-c2ccccc2)cc1` [Compound 103, 1-Benzyl-5-phenyl-1H-imidazole], the melting point was in the range of 99 to 100 °C. The compound `COc1ccc2[nH]cc(-c3cncn3Cc3c[nH]c4ccccc34)c2c1` [Compound 79, 3-(1-((1H-Indol-3-yl)methyl)-1H-imidazol-5-yl)-5-methoxy-1H-indole] displayed a melting point of 97 to 98 °C. The same measure, in the same setting: for `Fc1cccc2c(-c3cncn3CCc3ccccc3)c[nH]c12` [Compound 52, 7-Fluoro-3-(1-phenethyl-1H-imidazol-5-yl)-1H-indole] the value was 45 to 46 °C. The same measure, in the same setting: the value for `COc1ccc(Cn2cncc2-c2c[nH]c3cc(Cl)ccc23)cc1` [Compound 15, 6-Chloro-3-(1-(4-methoxybenzyl)-1H-imidazol-5-yl)-1H-indole] was 178 to 179 °C; that for `Fc1cccc2c(-c3cncn3Cc3c[nH]c4ccccc34)c[nH]c12` [Compound 74, 3-(1-((1H-Indol-3-yl)methyl)-1H-imidazol-5-yl)-7-fluoro-1H-indole] was 186 to 187 °C. `CCCCCn1cncc1-c1c[nH]c2c(F)cccc12`: the melting point lay in the range of 164 to 165 °C. On the same count and under the same terms, for `COc1ccc(CCn2cncc2-c2c[nH]c3c(Cl)cccc23)cc1` [Compound 69, 7-Chloro-3-(1-(4-methoxyphenethyl)-1H-imidazol-5-yl)-1H-indole] the value was 59 to 60 °C; for `Fc1ccc2[nH]cc(-c3cncn3CCc3ccc4c(c3)OCO4)c2c1` [Compound 37, 3-(1-(2-(Benzo[d][1,3]dioxol-5-yl)ethyl)-1H-imidazol-5-yl)-5-fluoro-1H-indole], greater than 200 °C; for `Clc1cccc2c(-c3cncn3CCc3ccccc3)c[nH]c12` [Compound 54, 7-Chloro-3-(1-phenethyl-1H-imidazol-5-yl)-1H-indole], 47 to 48 °C. In the case of `Brc1cccc2[nH]cc(-c3cncn3Cc3c[nH]c4ccccc34)c12` [Compound 78, 3-(1-((1H-Indol-3-yl)methyl)-1H-imidazol-5-yl)-4-bromo-1H-indole], the melting point was 201 to 202 °C. Regarding `COc1ccc(Cn2cncc2-c2c[nH]c3c(Cl)cccc23)cc1` [Compound 62, 7-Chloro-3-(1-(4-methoxybenzyl)-1H-imidazol-5-yl)-1H-indole], the melting point was 220 to 221 °C. `Fc1ccc2c(-c3cncn3CCc3ccc4c(c3)OCO4)c[nH]c2c1` [Compound 38, 3-(1-(2-(Benzo[d][1,3]dioxol-5-yl)ethyl)-1H-imidazol-5-yl)-6-fluoro-1H-indole] registered a melting point of 188 to 189 °C. `COc1ccc2[nH]cc(-c3cncn3CCc3ccccc3)c2c1` [Compound 56, 5-Methoxy-3-(1-phenethyl-1H-imidazol-5-yl)-1H-indole] showed a melting point of 51 to 52 °C. For `COc1ccc(Cn2cncc2-c2c[nH]c3ccc(Cl)cc23)cc1` [Compound 14, 5-Chloro-3-(1-(4-methoxybenzyl)-1H-imidazol-5-yl)-1H-indole], the melting point is 193 to 194 °C.

On to `COc1ccc(CCn2cncc2-c2c[nH]c3ccc(OC)cc23)cc1` [Compound 71, 5-Methoxy-3-(1-(4-methoxyphenethyl)-1H-imidazol-5-yl)-1H-indole], for which the melting point fell in the range of 48 to 49 °C. In turn, `COc1ccc2c(-c3cncn3Cc3ccccc3)c[nH]c2c1` [Compound 50, 3-(1-Benzyl-1H-imidazol-5-yl)-6-methoxy-1H-indole] registered a melting point of 66 to 67 °C. The same measure, in the same setting: the value for `COc1ccc(Cn2cncc2-c2c[nH]c3cccc(F)c23)cc1` [Compound 59, 4-Fluoro-3-(1-(4-methoxybenzyl)-1H-imidazol-5-yl)-1H-indole] was 66 to 67 °C; that for `CCCCCn1cncc1-c1c[nH]c2cccc(Cl)c12` was 188 to 189 °C.

Another data set has as its system Staphylococcus aureus ATCC25923. The data set is described as follows: MIC by broth dilution, S. aureus ATCC25923. The note with it: Staphylococcus aureus ATCC25923; mean (n = 3). It counts as cell-based. As to the method: The susceptibility of S. aureus (ATCC25923) to antibiotics and compounds was determined in microplates using the standard broth dilution method in accordance with the recommendations of the Comité de l’AntibioGramme de la Société Française de Microbiologie (CA-SFM) as previously described. Briefly, the minimal inhibitory concentrations (MICs) were determined with an inoculum of 10^5 CFU in 200 µL of Mueller-Hinton broth (MHB) containing two-fold serial dilutions of each drug. […] To determine all MICs, the measurements were independently repeated in triplicate.
(In broth dilution the organism is exposed to a series of concentrations in liquid medium.)
What is called MIC is the lowest concentration that inhibits growth of the organism. Read a high MIC as a need for much substance. Consider `O=C(N[C@H](CO)[C@H](O)c1ccc([N+](=O)[O-])cc1)C(Cl)Cl` [chloramphenicol, reference compound], for which the MIC lay in the range of 0.5 to 1 µg/mL (≈ 1.55 to 3.09 µM). The compound `[H]/N=C(/N)N[C@H]1[C@H](O)[C@@H](O)[C@H](O[C@@H]2O[C@@H](C)[C@](O)(C=O)[C@H]2O[C@@H]2O[C@@H](CO)[C@H](O)[C@@H](O)[C@@H]2NC)[C@@H](N/C(N)=N\[H])[C@@H]1O` [streptomycin, reference compound] returned an MIC of 12.5 µg/mL (≈ 21.5 µM).

A further data set concerns Cryptococcus neoformans ATCC208821. Put plainly: Antifungal MIC, C. neoformans. The note with it: Cryptococcus neoformans ATCC208821; mean (n = 2). It counts as cell-based. The protocol: For the antifungal assay, fungi strains were cultured for 3 days on yeast extract-peptone dextrose (YPD) agar at 30 °C. A yeast suspension of 1 × 10^6 to 5 × 10^6 CFU/mL was prepared from five colonies. These stock suspensions were diluted with yeast nitrogen base (YNB) (Becton Dickinson, 233520) broth to a final concentration of 2.5 × 10^3 CFU/mL. The compounds were serially diluted 2-fold across the wells of 96-well plates (Corning 3641, nonbinding surface), with compound concentrations ranging from 0.015 to 64 μg/mL and final volumes of 50 μL, plated in duplicate. Then, 50 μL of the fungi suspension that was previously prepared in YNB broth to the final concentration of 2.5 × 10^3 CFU/mL was added to each well of the compound-containing plates, giving a final compound concentration range of 0.008 to 32 μg/mL. Plates were covered and incubated at 35 °C for 36 h without shaking. C. albicans MICs were determined by measuring the absorbance at OD530. For C. neoformans, resazurin was added at 0.006% final concentration to each well and incubated for a further 3 h before MICs were determined by measuring the absorbance at OD570–600.
Colistin and vancomycin were used as positive bacterial inhibitor standards for Gram-negative and Gram-positive bacteria, respectively. Fluconazole was used as a positive fungal inhibitor standard for C. albicans and C. neoformans. The antibiotics were provided in 4 concentrations, with 2 above and 2 below its MIC value, and plated into the first 8 wells of column 23 of the 384-well NBS plates. The quality control (QC) of the assays was determined by the antimicrobial controls and the Z′-factor (using positive and negative controls).
For `OC(Cn1cncn1)(Cn1cncn1)c1ccc(F)cc1F` [fluconazole, reference compound], the MIC is 8 µg/mL (≈ 26.1 µM).

The values above are taken from PMC9598367, “Discovery and Preliminary Structure-Activity Investigation of 3-Substituted-1H-imidazol-5-yl-1H-indoles with In Vitro Activity towards Methicillin-Resistant Staphylococcus aureus” (Antibiotics, 2022).
